Patent US20130034497A1, “IODINE-LABELED HOMOGLUTAMIC ACID AND GLUTAMIC ACID DERIVATIVES” (PIRAMAL IMAGING SA, priority 2009, published 2013)

What was measured:
[1] = system: NCl-H460 cells; assay: cell competition experiment with I125-labeled derivative as tracer; format: cell-based, human
Protocol: To determine the specificity of (2S,4S)-2-Amino-4-(4-hydroxy-3-[1-125]-iodobenzyl)-pentanedioic acid, the compound was used as tracer in a cell competition experiment in H460 tumor cells against an excess of L-Glutamic acid (1 mM).
FIG. 3: Examination of biological activity of (2S,4S)-2-Amino-4-(3-[4-[I-125]-iodophenoxy]propylypentanedioic acid in a cell competition experiment. (NCl-H460 cells, 30 min incubation with I125-labeled derivative in PBS-buffer, concentration of “cold” derivative 1 mM).
FIG. 5: Determination of biological activity of (2S,4S)-2-Amino-4-(4-hydroxy-3-[I-125]-iodobenzyl)-pentanedioic acid in a cell competition experiment. (NCl-H460 cells, 10 min incubation with [I125]-labeled derivative in PBS-buffer, concentration of L-Glutamate 1 mM).

[2] = system: NCl-H460 cells; assay: tumor cell uptake/binding experiment with I125-labeled derivative; format: cell-based, human
Protocol: FIG. 6 The time dependence of uptake of (2S,4S)-2-Amino-4-(4-[I-125]-iodo-benzyl)-pentanedioic acid was determined. H460 cells were incubated with 0.25 MBq (2S,4S)-2-Amino-4-(4-[I-125]-iodo-benzyl)-pentanedioic acid for up to 60 min and the cell-bound fraction was determined after 10, 20, 30 and 60 min).
In a next experiment, NCl-H460 cells were incubated with [I125]-labeled (2S,4S)-2-Amino-4-(3-[4-[I-125]-iodophenoxy]propylypentanedioic acid for up to 30 min and the cell-bound fraction was determined. Approximately 12% of applied activity was bound to the cells after 30 min incubation (FIG. 2).
FIG. 2: E xamination of biological activity of (2S,4S)-2-Amino-4-(3-[4-[I-125]-iodophenoxy]propylypentanedioic acid in a tumor cell uptake/binding experiment. (NCl-H460 cells, up to 30 min incubation with I125-labeled derivative).
Cell uptake & Retention of (2S,4S)-2-Amino-4-(4-[1-125]-iodo-benzyl)-pentanedioic acid—For determination of the biological activity of (2S,4S)-2-Amino-4-(4-[I-125]-iodo-benzyl)-pentanedioic acid, the I-125 labeled compound was used as tracer in a cell uptake experiment using H460 (human NSCLC) cells. Approximately 100.000 cells were incubated with 0.25 MBq (2S,4S)-2-Amino-4-(4-[I-125]-iodo-benzyl)-pentanedioic acid for up to 60 minutes in PBS-buffer containing 0.1% BSA and the cell-bound fraction was determined. […] Approximately 22,3% of applied dose was taken up by the cells during the 60 min incubation period (see FIG. 6).

[3] = system: A549 (human NSCLC cell line); assay: cell competition experiment with 3H-glutamic acid as tracer, A549 cells; format: cell-based; settings: test compound 1 mM, 10 min incubation with 1 μCi 3H-Glutamic acid in PBS-buffer
Protocol: (§1) The specificity of binding was examined in a cell competition experiment using 3H-glutamic acid as tracer and (2S,4S)-2-Amino-4-(4-iodo-benzyl)-pentanedioic acid in excess (1 mM) to compete for transporter.
(§2) FIG. 4: Examination of biological activity of (2S,4S)-2-Amino-4-(4-iodo-benzyl)-pentanedioic acid in a cell competition experiment. (NCl-H460 cells, A549 cells, 10 min incubation with 1 μCi 3H-Glutamic acid in PBS-buffer, concentration of test compound 1 mM).

[4] = system: NCl-H460 (human NSCLC) tumor cells; assay: cell competition experiment with 3H-glutamic acid as tracer, NCl-H460 cells; format: cell-based
Protocol: FIG. 9 Examination of biological activity of (S)-2-Amino-5-(4-iodobenzyl)-hexanedioic acid in a cell-competition-experiment (H460 cells, 30 min incubation with 3H-glutamic acid in PBS-Puffer, concentration of competitor 1 mM and 0.1 mM).
The specificity of binding to NCl-H460 (human NSCLC) tumor cells was examined using 3H-Glutamic acid as tracer and (2S,4S)-2-Amino-4-(3-[4-iodophenoxy]propyl)-pentanedioic acid in concentrations ranging from 4 μM to 1 mM.
as §1
FIG. 1: Concentration dependent blocking of 3H-Glutamic acid uptake in H460 cells using different concentrations of (2S,4S)-2-Amino-4-(3-[4-iodophenoxy]propyl)-pentanedioic acid.
as §2
The ability of (S)-2-Amino-5-(4-iodobenzyl)-hexanedioic acid to compete with uptake of glutamic acid into tumor cells was examined. Therefore, tumor cells were co-incubated with 3H-labeled glutamic acid and (S)-2-Amino-5-(4-iodobenzyl)-hexanedioic acid. This compounds was used in large excess to the tracer 3H-glutamic acid. Two concentrations were examined (1mM an 0.1 mM).

[5] = system: H460 tumor cells; assay: retention of activity in tumor cells (efflux); format: cell-based, human; settings: H460 cells loaded 30 min; after 30 min in new PBS-buffer (efflux conditions)
Protocol: FIG. 7 Examination of retention of (2S,4S)-2-Amino-4-(4-[I-125]odo-benzyl)-pentanedioic acid in H460 tumor cells. H460 cells were loaded with 0.25 MBq (2S,4S)-2-Amino-4-(4-[I-125]-iodo-benzyl)-pentanedioic acid for 30 min in PBS/BSA. After washing, the cells were incubated with new buffer (without radioactivity) for additional 10, 20, 30 min. The release of radioactivity into the supernatant as well as the retention inside the cells was determined.
In a second experiment, the retention of activity in tumor cells was examined. H460 cells were loaded with 0.25 MBq (2S,4S)-2-Amino-4-(4-[I-125]-iodo-benzyl)-pentanedioic acid for 30 minutes in PBS/BSA-buffer. After this uptake, the buffer was removed and the cells were washed with PBS. The cells were then incubated with new PBS-buffer (without activity) for up to 30 min. The release of activity into the supernatant as well as the retention of activity inside the cells was examined. It was discovered, that more than 75% of activity were retained in the tumor cells after 30 min under these efflux conditions (see FIG. 7).

[6] = system: NCl-H460 (human NSCLC) tumor bearing nude-mice; assay: SPECT imaging in tumor bearing nude-mice; format: in vivo, nude-mice (NMRI nu/nu); settings: approx. 10 MBq; images acquired at 60 min p.i. for 35 min
Protocol: FIG. 8 SPECT imaging with (2S,4S)-2-Amino-4-(4-[I-125]odo-benzyl)-pentanedioic acid after injection into H460 tumor bearing mouse.
SPECT imaging. (2S,4S)-2-Amino-4-(4-[I-125]-iodo-benzyl)-pentanedioic acid was examined in NCl-H460 (human NSCLC) tumor bearing nude-mice (NMRI nu/nu). Approx. 10 MBq of (2S,4S)-2-Amino-4-(4-[I-125]-iodo-benzyl)pentanedioic acid was injected into the mouse. SPECT imaging was performed using a γ-camera (Nucline SPIRIT DH-V). Images were aquired at 60 min p.i. for 35 min with 60 sec/frame.

[7] = system: H460 tumor bearing mice; assay: Biodistribution in H460 tumor bearing mice; format: in vivo, NMRI (nu/nu) mice; settings: for Bilanz/summary Recovery / Bilanz/summary urine: in % (unit assumed)
Protocol: Biodistribution in H460 tumor bearing mice. To test the pharmacokinetic properties of (2S,4S)-2-Amino-4-(4-[I-125]-iodo-benzyl)-pentanedioic acid, the iodinated compound was examined in H460 tumor bearing mice. NMRI (nu/nu) mice were inoculated with H460 tumor cells 8 to 10 days before the biodistribution studies. 185 kBq of activity of the tracer was injected into each mouse. n=3 mice were used at every time point. After injection of the I125-labeled compound, mice were sacrificed at the time points indicated. All organs were removed and radioactivity was determined using a γ-counter. […] Very rapid clearance of radioactivity takes place via the kidneys, with more than 90% of activity being excreted after 30 min p.i.

SMILES: N[C@@H](C[C@H](CCCOc1ccc([125I])cc1)C(=O)O)C(=O)O [(2S,4S)-2-Amino-4-(3-[4-[I-125]-iodophenoxy]propyl)-pentanedioic acid]
- binding of I125 tracer with cold derivative in excess ([1]; NCl-H460 cells, 30 min incubation in PBS-buffer, cold derivative 1 mM): a large decrease in binding was observed
- cell-bound fraction ([2]; NCl-H460 cells, after 30 min incubation): Approximately 12 % of applied activity

SMILES: N[C@@H](C[C@H](Cc1ccc(I)cc1)C(=O)O)C(=O)O [(2S,4S)-2-Amino-4-(4-iodo-benzyl)-pentanedioic acid]
- uptake of 3H-glutamic acid [3]: able to reduce the uptake of glutamic acid
- uptake of 3H-glutamic acid ([4]; NCl-H460 cells, test compound 1 mM, 10 min incubation with 1 μCi 3H-Glutamic acid in PBS-buffer): able to reduce the uptake of glutamic acid

SMILES: N[C@@H](C[C@H](Cc1ccc([125I])cc1)C(=O)O)C(=O)O [(2S,4S)-2-Amino-4-(4-[I-125]-iodo-benzyl)-pentanedioic acid]
- activity retained in the tumor cells [5]: more than 75 % of activity
- uptake by the cells ([2]; H460 cells, 0.25 MBq, 60 min incubation, PBS-buffer containing 0.1% BSA): Approximately 22,3 % of applied dose
- time dependence of uptake ([2]; H460 cells, 0.25 MBq, up to 60 min, PBS-buffer containing 0.1% BSA): A time-dependent uptake was observed
- tumor visibility in SPECT-images [6]: The tumor was very well visible
- Bilanz/summary carcass ([7]; 0.5 h): 3.4%
- Bilanz/summary organs ([7]; 0.5 h): 10.2%
- blood ([7]; 0.5 h): 0.28 % Dosis/g
- gallbladder ([7]; 0.5 h): 8.09 % Dosis/g
- intestine ([7]; 0.5 h): 1.26 % Dosis/g
- kidney ([7]; 0.5 h): 2.14 % Dosis/g
- liver ([7]; 0.5 h): 0.25 % Dosis/g
- pancreas ([7]; 0.5 h): 0.62 % Dosis/g
- thyroid ([7]; 0.5 h): 0.43 % Dosis/g
- tumor ([7]; 0.5 h): 4.12 % Dosis/g
- Bilanz/summary Recovery ([7]; 0.5 h): 112.7
- Bilanz/summary urine ([7]; 0.5 h): 99.1
- uptake in the tumor ([7]; 30 min p.i., 185 kBq): 4.12 % injected dose per gram of tumor
- Bilanz/summary carcass ([7]; 1 h): 2.2%
- Bilanz/summary faeces ([7]; 1 h): 0.7%
- Bilanz/summary organs ([7]; 1 h): 6.8%
- blood ([7]; 1 h): 0.13 % Dosis/g
- gallbladder ([7]; 1 h): 5.00 % Dosis/g
- intestine ([7]; 1 h): 0.85 % Dosis/g
- kidney ([7]; 1 h): 0.83 % Dosis/g
- liver ([7]; 1 h): 0.07 % Dosis/g
- pancreas ([7]; 1 h): 0.12 % Dosis/g
- thyroid ([7]; 1 h): 0.72 % Dosis/g
- tumor ([7]; 1 h): 3.68 % Dosis/g
- Bilanz/summary Recovery ([7]; 1 h): 109.3
- Bilanz/summary urine ([7]; 1 h): 99.6
- Bilanz/summary carcass ([7]; 2 h): 1.1%
- Bilanz/summary faeces ([7]; 2 h): 2%
- Bilanz/summary organs ([7]; 2 h): 3.8%
- blood ([7]; 2 h): 0.08 % Dosis/g
- gallbladder ([7]; 2 h): 4.73 % Dosis/g
- intestine ([7]; 2 h): 0.78 % Dosis/g
- kidney ([7]; 2 h): 0.24 % Dosis/g
- liver ([7]; 2 h): 0.03 % Dosis/g
- pancreas ([7]; 2 h): 0.06 % Dosis/g
- thyroid ([7]; 2 h): 0.42 % Dosis/g
- tumor ([7]; 2 h): 1.90 % Dosis/g
- Bilanz/summary Recovery ([7]; 2 h): 109.7
- Bilanz/summary urine ([7]; 2 h): 102.8
- Bilanz/summary carcass ([7]; 4 h): 0.5%
- Bilanz/summary faeces ([7]; 4 h): 0.1%
- Bilanz/summary organs ([7]; 4 h): 2.8%
- blood ([7]; 4 h): 0.06 % Dosis/g
- gallbladder ([7]; 4 h): 6.63 % Dosis/g
- intestine ([7]; 4 h): 1.32 % Dosis/g
- kidney ([7]; 4 h): 0.10 % Dosis/g
- liver ([7]; 4 h): 0.03 % Dosis/g
- pancreas ([7]; 4 h): 0.03 % Dosis/g
- thyroid ([7]; 4 h): 1.05 % Dosis/g
- tumor ([7]; 4 h): 1.55 % Dosis/g
- Bilanz/summary Recovery ([7]; 4 h): 115.3
- Bilanz/summary urine ([7]; 4 h): 111.9
- activity excreted via the kidneys ([7]; after 30 min p.i.): more than 90 % of activity

SMILES: N[C@@H](C[C@H](CCCOc1ccc(I)cc1)C(=O)O)C(=O)O [(2S,4S)-2-Amino-4-(3-[4-iodophenoxy]propyl)-pentanedioic acid]
- uptake of 3H-glutamic acid (blocking) ([4]; NCl-H460 cells, test compound 4 μM to 1 mM): able to reduce the uptake of glutamic acid in NCl-H460 cells in a concentration dependent manner

SMILES: N[C@@H](CCC(Cc1ccc(I)cc1)C(=O)O)C(=O)O (stereo partly drawn) [(S)-2-Amino-5-(4-iodobenzyl)-hexanedioic acid]
- uptake of 3H-glutamic acid ([4]; H460 cells, 30 min incubation, competitor 1 mM and 0.1 mM): strongly reduces the uptake of glutamic acid

SMILES: N[C@@H](C[C@H](Cc1ccc(O)c([125I])c1)C(=O)O)C(=O)O [(2S,4S)-2-Amino-4-(4-hydroxy-3-[I-125]-iodobenzyl)-pentanedioic acid]
- uptake of I125 tracer against excess of L-Glutamic acid ([1]; H460 cells, 10 min incubation in PBS-buffer, L-Glutamate 1 mM): the uptake was blockable by excess of glutamic acid
